{"source": "patent US6372707B1", "about": "“Cleaning compositions” (Lever Brothers Company, division of Conopco, Inc., priority 1997, dated 2002)", "origin": "cited, not measured here", "conditions": "for Water Solubility (g/100 g): grams of solid to form a saturated solution in 100 grams of water at 20° C.", "data": [{"smiles": "O=P(O)(O)OP(=O)(O)OP(=O)(O)O", "note": "[Sodium tripolyphosphate anhydrous]", "values": [{"measurement": "Water Solubility (g/100 g)", "value": 15, "unit": "g/100 g"}]}, {"smiles": "O=BO[O-].[Na+]", "note": "[Sodium perborate anhydrous]", "values": [{"measurement": "Water Solubility (g/100 g)", "value": 3.7, "unit": "g/100 g"}]}, {"smiles": "NC(N)=O", "note": "[Urea]", "values": [{"measurement": "solubility in water", "setting": "at 20° C.", "value": "exceeding 100 gms per 100 ml water"}, {"measurement": "Water Solubility (g/100 g)", "value": ">100", "unit": "g/100 g"}]}]}
